Measurements from the kinase profiling compilation of Christmann-Franck et al. (2016).

Tests used:
Assay in all cases: KINOMEscan competition binding
Settings in all cases: compound 10.0 µM
HCK (human) = HCK (human) (UniProt P08631)
NEK2 (human) = NEK2 (human) (UniProt P51955)
MAPK12 (human) = MAPK12 (human) (UniProt P53778)
MAK (human) = MAK (human) (UniProt P20794)
CSNK2A1 (human) = CSNK2A1 (human) (UniProt P68400)
NEK1 (human) = NEK1 (human) (UniProt Q96PY6)
PRKACA (human) = PRKACA (human) (UniProt P17612)
EGFR (human) = EGFR (human) (UniProt P00533)
DCLK3 (human) = DCLK3 (human) (UniProt Q9C098)
BMPR2 (human) = BMPR2 (human) (UniProt Q13873)
TIE1 (human) = TIE1 (human) (UniProt P35590)
NTRK2 (human) = NTRK2 (human) (UniProt Q16620)
NTRK3 (human) = NTRK3 (human) (UniProt Q16288)
MAPKAPK2 (human) = MAPKAPK2 (human) (UniProt P49137)
TTK (human) = TTK (human) (UniProt P33981)
CDKL1 (human) = CDKL1 (human) (UniProt Q00532)
MUSK (human) = MUSK (human) (UniProt O15146)
GSK3A (human) = GSK3A (human) (UniProt P49840)
CAMK2A (human) = CAMK2A (human) (UniProt Q9UQM7)
CLK3 (human) = CLK3 (human) (UniProt P49761)
ADCK4 (human) = ADCK4 (human) (UniProt Q96D53)
STK36 (human) = STK36 (human) (UniProt Q9NRP7)
PIK3CD (human) = PIK3CD (human) (UniProt O00329)
PIM2 (human) = PIM2 (human) (UniProt Q9P1W9)
STK35 (human) = STK35 (human) (UniProt Q8TDR2)
CDK16 (human) = CDK16 (human) (UniProt Q00536)
MAP2K4 (human) = MAP2K4 (human) (UniProt P45985)
DCLK2 (human) = DCLK2 (human) (UniProt Q8N568)
CDKL5 (human) = CDKL5 (human) (UniProt O76039)
PIK3C2G (human) = PIK3C2G (human) (UniProt O75747)
MAPK14 (human) = MAPK14 (human) (UniProt Q16539)
DAPK1 (human) = DAPK1 (human) (UniProt P53355)
LIMK1 (human) = LIMK1 (human) (UniProt P53667)
FLT4 (human) = FLT4 (human) (UniProt P35916)
MAPKAPK5 (human) = MAPKAPK5 (human) (UniProt Q8IW41)
SIK2 (human) = SIK2 (human) (UniProt Q9H0K1)
MAP3K10 (human) = MAP3K10 (human) (UniProt Q02779)
EPHA4 (human) = EPHA4 (human) (UniProt P54764)
CSNK1A1L (human) = CSNK1A1L (human) (UniProt Q8N752)
EPHA6 (human) = EPHA6 (human) (UniProt Q9UF33)

Chain of MAPKAPK2 (human) (P49137 whole entry, looked up): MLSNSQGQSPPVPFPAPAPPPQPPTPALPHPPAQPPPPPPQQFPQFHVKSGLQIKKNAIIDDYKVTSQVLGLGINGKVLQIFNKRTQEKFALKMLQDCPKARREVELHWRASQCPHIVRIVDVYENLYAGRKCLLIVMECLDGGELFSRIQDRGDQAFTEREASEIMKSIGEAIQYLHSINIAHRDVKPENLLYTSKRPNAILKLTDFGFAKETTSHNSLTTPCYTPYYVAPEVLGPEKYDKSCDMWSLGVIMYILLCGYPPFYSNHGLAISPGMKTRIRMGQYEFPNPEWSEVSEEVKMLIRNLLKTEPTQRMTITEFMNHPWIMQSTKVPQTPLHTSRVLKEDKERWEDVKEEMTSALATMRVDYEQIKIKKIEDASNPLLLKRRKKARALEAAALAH
Chain of HCK (human) (P08631 whole entry, looked up): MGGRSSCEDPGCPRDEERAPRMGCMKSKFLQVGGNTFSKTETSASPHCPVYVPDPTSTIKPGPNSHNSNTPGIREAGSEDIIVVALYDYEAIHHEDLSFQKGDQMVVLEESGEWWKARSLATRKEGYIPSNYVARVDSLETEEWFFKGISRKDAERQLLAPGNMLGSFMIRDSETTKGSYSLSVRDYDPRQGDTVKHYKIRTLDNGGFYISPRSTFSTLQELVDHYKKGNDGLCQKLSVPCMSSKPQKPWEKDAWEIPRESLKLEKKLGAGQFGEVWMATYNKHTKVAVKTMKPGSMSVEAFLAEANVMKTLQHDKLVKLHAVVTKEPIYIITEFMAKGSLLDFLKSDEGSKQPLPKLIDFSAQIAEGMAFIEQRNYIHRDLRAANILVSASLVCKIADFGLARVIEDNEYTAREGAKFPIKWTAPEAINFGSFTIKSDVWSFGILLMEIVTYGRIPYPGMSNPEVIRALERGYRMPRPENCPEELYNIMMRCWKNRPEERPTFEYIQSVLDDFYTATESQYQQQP
Chain of MAPK14 (human) (Q16539 whole entry, looked up): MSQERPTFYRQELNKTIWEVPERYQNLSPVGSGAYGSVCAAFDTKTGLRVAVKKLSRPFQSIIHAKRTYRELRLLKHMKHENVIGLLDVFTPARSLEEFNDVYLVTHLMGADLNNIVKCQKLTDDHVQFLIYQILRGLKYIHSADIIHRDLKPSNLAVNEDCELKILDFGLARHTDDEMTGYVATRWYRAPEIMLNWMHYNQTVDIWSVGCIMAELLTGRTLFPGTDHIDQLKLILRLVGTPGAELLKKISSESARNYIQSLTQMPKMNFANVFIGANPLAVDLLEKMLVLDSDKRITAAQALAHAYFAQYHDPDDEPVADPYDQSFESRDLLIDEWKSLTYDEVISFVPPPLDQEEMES
Chain of MAPKAPK5 (human) (Q8IW41 whole entry, looked up): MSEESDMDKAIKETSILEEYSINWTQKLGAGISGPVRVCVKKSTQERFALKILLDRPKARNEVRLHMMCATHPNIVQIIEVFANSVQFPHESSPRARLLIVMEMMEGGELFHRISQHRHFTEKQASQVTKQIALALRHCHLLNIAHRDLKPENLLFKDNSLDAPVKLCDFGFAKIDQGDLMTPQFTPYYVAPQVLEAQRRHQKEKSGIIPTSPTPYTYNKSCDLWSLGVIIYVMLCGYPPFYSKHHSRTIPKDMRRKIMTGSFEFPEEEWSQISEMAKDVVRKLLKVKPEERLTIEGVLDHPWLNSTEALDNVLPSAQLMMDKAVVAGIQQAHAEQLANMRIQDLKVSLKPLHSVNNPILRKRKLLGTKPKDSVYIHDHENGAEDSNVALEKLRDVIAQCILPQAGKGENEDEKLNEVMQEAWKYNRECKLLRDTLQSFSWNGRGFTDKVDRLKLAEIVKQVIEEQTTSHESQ
Chain of MAP3K10 (human) (Q02779 whole entry, looked up): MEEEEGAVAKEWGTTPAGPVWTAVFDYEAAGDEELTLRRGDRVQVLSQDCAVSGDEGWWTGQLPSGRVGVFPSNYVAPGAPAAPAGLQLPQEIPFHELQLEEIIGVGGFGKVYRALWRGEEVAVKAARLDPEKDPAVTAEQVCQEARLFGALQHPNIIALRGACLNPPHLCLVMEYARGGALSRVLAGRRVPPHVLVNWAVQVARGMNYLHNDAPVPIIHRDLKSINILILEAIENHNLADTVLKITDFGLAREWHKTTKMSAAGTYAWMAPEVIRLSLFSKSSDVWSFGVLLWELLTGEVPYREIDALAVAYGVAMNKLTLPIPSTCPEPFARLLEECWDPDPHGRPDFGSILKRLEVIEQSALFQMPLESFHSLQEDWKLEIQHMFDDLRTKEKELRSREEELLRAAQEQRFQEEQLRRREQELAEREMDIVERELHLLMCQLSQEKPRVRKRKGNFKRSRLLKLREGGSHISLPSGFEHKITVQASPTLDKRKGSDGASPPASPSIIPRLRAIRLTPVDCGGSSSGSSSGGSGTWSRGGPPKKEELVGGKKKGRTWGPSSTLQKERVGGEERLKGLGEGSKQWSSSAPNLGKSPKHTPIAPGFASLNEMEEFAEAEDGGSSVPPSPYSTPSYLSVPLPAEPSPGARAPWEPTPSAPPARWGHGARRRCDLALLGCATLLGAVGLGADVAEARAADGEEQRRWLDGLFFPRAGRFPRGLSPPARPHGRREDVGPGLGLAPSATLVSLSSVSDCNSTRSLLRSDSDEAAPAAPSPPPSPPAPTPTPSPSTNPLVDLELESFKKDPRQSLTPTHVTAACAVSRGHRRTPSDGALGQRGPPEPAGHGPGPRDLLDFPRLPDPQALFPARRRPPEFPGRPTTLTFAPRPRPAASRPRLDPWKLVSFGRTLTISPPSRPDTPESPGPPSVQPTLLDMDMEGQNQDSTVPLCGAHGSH
Chain of CDKL1 (human) (Q00532 whole entry, looked up): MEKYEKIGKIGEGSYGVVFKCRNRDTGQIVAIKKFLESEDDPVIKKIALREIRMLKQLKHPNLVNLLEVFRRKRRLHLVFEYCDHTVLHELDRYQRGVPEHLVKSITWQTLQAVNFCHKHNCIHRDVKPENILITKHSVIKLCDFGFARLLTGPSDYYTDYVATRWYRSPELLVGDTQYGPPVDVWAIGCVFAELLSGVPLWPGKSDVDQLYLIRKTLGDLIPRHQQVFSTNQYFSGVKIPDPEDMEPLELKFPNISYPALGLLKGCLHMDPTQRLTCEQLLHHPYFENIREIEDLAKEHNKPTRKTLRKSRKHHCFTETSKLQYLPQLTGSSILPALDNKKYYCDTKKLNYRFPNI
Chain of EGFR (human) (P00533 whole entry, looked up): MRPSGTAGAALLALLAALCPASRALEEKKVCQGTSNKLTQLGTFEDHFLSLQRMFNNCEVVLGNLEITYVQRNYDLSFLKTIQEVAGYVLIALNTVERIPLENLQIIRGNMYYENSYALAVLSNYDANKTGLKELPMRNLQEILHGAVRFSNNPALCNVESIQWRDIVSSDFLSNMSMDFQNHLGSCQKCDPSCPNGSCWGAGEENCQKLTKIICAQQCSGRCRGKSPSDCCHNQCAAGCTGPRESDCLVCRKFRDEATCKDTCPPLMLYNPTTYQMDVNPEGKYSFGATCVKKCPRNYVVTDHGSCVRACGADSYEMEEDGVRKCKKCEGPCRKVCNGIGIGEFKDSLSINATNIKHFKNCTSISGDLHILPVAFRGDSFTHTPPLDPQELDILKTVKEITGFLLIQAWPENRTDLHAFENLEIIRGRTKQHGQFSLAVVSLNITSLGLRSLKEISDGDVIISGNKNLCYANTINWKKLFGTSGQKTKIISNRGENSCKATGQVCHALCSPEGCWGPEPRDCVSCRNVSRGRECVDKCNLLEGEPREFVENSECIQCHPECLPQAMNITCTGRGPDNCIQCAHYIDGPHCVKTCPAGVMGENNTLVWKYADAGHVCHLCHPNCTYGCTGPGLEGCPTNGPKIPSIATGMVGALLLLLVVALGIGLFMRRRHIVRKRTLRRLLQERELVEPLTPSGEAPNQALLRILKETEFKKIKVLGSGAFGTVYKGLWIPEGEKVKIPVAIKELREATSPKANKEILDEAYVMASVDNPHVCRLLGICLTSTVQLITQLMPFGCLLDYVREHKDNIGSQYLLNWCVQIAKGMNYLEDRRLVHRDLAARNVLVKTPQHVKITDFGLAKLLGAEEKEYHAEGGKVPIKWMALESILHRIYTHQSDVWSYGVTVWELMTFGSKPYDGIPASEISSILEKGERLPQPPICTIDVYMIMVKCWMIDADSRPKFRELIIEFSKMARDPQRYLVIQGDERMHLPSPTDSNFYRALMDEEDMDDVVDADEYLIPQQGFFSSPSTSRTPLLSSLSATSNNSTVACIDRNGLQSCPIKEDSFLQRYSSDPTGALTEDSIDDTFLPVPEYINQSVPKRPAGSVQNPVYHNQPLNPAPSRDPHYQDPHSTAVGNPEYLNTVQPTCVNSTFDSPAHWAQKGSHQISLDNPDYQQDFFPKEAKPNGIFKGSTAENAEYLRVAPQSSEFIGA
Chain of CAMK2A (human) (Q9UQM7 whole entry, looked up): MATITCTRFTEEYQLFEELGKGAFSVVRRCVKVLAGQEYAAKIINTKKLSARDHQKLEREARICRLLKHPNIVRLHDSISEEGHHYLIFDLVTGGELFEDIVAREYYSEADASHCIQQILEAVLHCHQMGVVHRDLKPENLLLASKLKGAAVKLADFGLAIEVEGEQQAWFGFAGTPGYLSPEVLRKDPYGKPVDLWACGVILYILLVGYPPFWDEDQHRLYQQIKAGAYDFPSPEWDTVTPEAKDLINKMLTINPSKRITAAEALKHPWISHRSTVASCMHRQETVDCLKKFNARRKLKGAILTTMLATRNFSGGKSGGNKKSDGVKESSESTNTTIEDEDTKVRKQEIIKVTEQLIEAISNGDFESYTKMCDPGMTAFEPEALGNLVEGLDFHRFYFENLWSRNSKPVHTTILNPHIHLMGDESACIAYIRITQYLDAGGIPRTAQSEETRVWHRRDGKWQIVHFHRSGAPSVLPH

SMILES	kinase still bound, per cent of control (HCK (human))	kinase still bound, per cent of control (NEK2 (human))	kinase still bound, per cent of control (MAPK12 (human))	kinase still bound, per cent of control (MAK (human))	kinase still bound, per cent of control (CSNK2A1 (human))	kinase still bound, per cent of control (NEK1 (human))	kinase still bound, per cent of control (PRKACA (human))	kinase still bound, per cent of control (EGFR (human))	kinase still bound, per cent of control (DCLK3 (human))	kinase still bound, per cent of control (BMPR2 (human))	kinase still bound, per cent of control (TIE1 (human))	kinase still bound, per cent of control (NTRK2 (human))	kinase still bound, per cent of control (NTRK3 (human))	kinase still bound, per cent of control (MAPKAPK2 (human))	kinase still bound, per cent of control (TTK (human))	kinase still bound, per cent of control (CDKL1 (human))	kinase still bound, per cent of control (MUSK (human))	kinase still bound, per cent of control (GSK3A (human))	kinase still bound, per cent of control (CAMK2A (human))	kinase still bound, per cent of control (CLK3 (human))	further results
O=C1NC(=O)/C(=C/c2ccc3nccc(-c4ccncc4)c3c2)S1	75%	64%	56%	100%	7.9%	47%	35%	58%	11%	100%	100%	73%	68%	74%	19%	61%	92%	71%	4.8%	0.05%	kinase still bound, per cent of control (ADCK4 (human)): 35%; kinase still bound, per cent of control (STK36 (human)): 89%; kinase still bound, per cent of control (PIK3CD (human)): 4.8%; kinase still bound, per cent of control (PIM2 (human)): 1%; kinase still bound, per cent of control (STK35 (human)): 49%; kinase still bound, per cent of control (CDK16 (human)): 71%; kinase still bound, per cent of control (MAP2K4 (human)): 9.6%; kinase still bound, per cent of control (DCLK2 (human)): 91%; kinase still bound, per cent of control (CDKL5 (human)): 76%; kinase still bound, per cent of control (PIK3C2G (human)): 3.8%; kinase still bound, per cent of control (MAPK14 (human)): 100%; kinase still bound, per cent of control (DAPK1 (human)): 6.4%; kinase still bound, per cent of control (LIMK1 (human)): 88%; kinase still bound, per cent of control (FLT4 (human)): 98%; kinase still bound, per cent of control (MAPKAPK5 (human)): 0.2%; kinase still bound, per cent of control (SIK2 (human)): 100%; kinase still bound, per cent of control (MAP3K10 (human)): 60%; kinase still bound, per cent of control (EPHA4 (human)): 96%; kinase still bound, per cent of control (CSNK1A1L (human)): 55%; kinase still bound, per cent of control (EPHA6 (human)): 83%
CCN1CCN(C(=O)Cc2ccc(Nc3ncc(F)c(Nc4ccc(C(=O)Nc5ccccc5Cl)cc4)n3)cc2)CC1	84%	87%	100%	100%	18%	17%	42%	26%	80%	25%	10%	27%	78%	100%	18%	41%	11%	88%	68%	23%	kinase still bound, per cent of control (ADCK4 (human)): 0.45%; kinase still bound, per cent of control (STK36 (human)): 2.1%; kinase still bound, per cent of control (PIK3CD (human)): 41%; kinase still bound, per cent of control (PIM2 (human)): 100%; kinase still bound, per cent of control (STK35 (human)): 91%; kinase still bound, per cent of control (CDK16 (human)): 40%; kinase still bound, per cent of control (MAP2K4 (human)): 49%; kinase still bound, per cent of control (DCLK2 (human)): 88%; kinase still bound, per cent of control (CDKL5 (human)): 100%; kinase still bound, per cent of control (PIK3C2G (human)): 39%; kinase still bound, per cent of control (MAPK14 (human)): 97%; kinase still bound, per cent of control (DAPK1 (human)): 3.8%; kinase still bound, per cent of control (LIMK1 (human)): 9.8%; kinase still bound, per cent of control (FLT4 (human)): 7.6%; kinase still bound, per cent of control (MAPKAPK5 (human)): 100%; kinase still bound, per cent of control (SIK2 (human)): 20%; kinase still bound, per cent of control (MAP3K10 (human)): 7.2%; kinase still bound, per cent of control (EPHA4 (human)): 83%; kinase still bound, per cent of control (CSNK1A1L (human)): 100%; kinase still bound, per cent of control (EPHA6 (human)): 46%
